Measurements as given in article PMC12703749, “H2O2–Responsive Anticancer Prodrug: Synthesis, Precision Deuteration in Search of In Vivo Metabolites, and Activation Pathway” (Journal of Medicinal Chemistry, 2025).

Assay: In vivo determination of metabolites in urine and feces (HRMS)
Set-up: species or system athymic nude mice
Experimental: To elucidate the in vivo activation mechanism of the H2O2-responsive prodrugs 10a and 10b, we investigated their metabolic fate in a xenograft mouse model. MDA-MB-468 tumor-bearing athymic nude mice received an intraperitoneal injection of a 1:1 mixture of 10a (nondeuterated, d 0) and 10b (deuterated, d 5) at equimolar doses (15 mg/kg each; total dose: 30 mg/kg). […] These end-products are consistent with a pathway initiated by H2O2-triggered oxidative deboronation of the boronic acid moiety in 10a/10b to yield phenol intermediates 11a/11b, which can undergo either hydrolysis to alcohols 12a/12b followed by N-demethylation, or direct N-demethylation to 13a/13b (Scheme ). The resulting 13a/13b serve as substrates for UDP-glucuronosyltransferase (UGT)-catalyzed conjugation with uridine diphosphate glucuronic acid, ultimately forming glucuronide conjugates 14a and 14b (Figure and Scheme ). Although intermediates 11a,b-13a,b were not detected in vivo, likely due to their rapid turnover and concentrations below the sensitivity of our LC–MS method, the proposed sequence is strongly supported by complementary cell-culture metabolism studies in which two key intermediates (11a,b and 12a,b) were observed (Figures S8 and S9). Detection of both isotopically labeled and unlabeled metabolites therefore provides robust evidence for H2O2-mediated oxidative deboronation in vivo, with the in vitro findings offering additional mechanistic confirmation.
Eight-week-old female athymic nude mice (immunodeficient) were anesthetized with isoflurane and subcutaneously inoculated in the flank with 7.5 × 10^6 MDA-MB-468 cells in 100 μL of a 1:1 mixture of Matrigel and Dulbecco’s Modified Eagle Medium (DMEM). Cells were sourced from the American Type Culture Collection (ATCC) and certified free of bloodborne pathogens. Mice were monitored daily for tumor development and weighed weekly. Upon establishment of palpable xenografts (typically one-week postinoculation), animals were randomized into treatment (n = 3) and control (n = 3) groups. For metabolite profiling, mice were individually housed in Labsand-lined cages (Labsand purchased from BrainTree Scientific, inc.). The treatment group received an IP injection of a 1:1 mixture of compounds 10a (d 0) and 10b (d 5) (100 μL) at a combined dose of […], formulated in DMSO/PBS (1×):PEG400 at a ratio of 2:19:19. The control group received the corresponding vehicle (PBS/PEG400/DMSO, 19:19:2). Food and water were provided ad libitum. Urine and Feces were collected separately at two intervals: 0–24 h and 24–48 h. All collected samples were subsequently stored in −80 °C.
Fecal samples (0.4 g) were thawed on ice from −80 °C. The feces were mixed and homogenized with a pestle in 10 mL centrifuge tube with LCMS grade MeOH (2 mL), then centrifuged for 5 min at 10,000g. The supernatant was transferred to a separate 2 mL centrifuge tube and dried. The resulting feces were subjected to SPE C-18 (Supelco Discovery DSC-18Lt SPE Tube) by initially using 5 mL 18 LCMS grade water and subsequently eluted with LCMS grade MeOH. The organic eluant was collected and dried. The resulting feces mixture was filtered by size exclusion (Amicon Ultra Centrifugal Filter, 3 kDa MWCO). Then the solution was transferred to a sample vial with 300 μL insert and analyzed by Shimadzu HRMS 9030 Q-TOF. Urine samples were thawed on ice from −80 °C, vortexed for 5 s and blended in aliquots of 20 μL MeCN. The samples were vortexed for 15 s and centrifuged for 10 min at 10,000g. The supernatant was transferred to a clean microcentrifuge tube and diluted 10× with 80:20 H2O/MeCN. The resulting solution was filtered by size exclusion (Amicon Ultra Centrifugal Filter, 3 kDa MWCO) at 11k × g.
3. In vivo determination of metabolites from Xenograft models
Table S1. In vivo metabolites of 10a and 10b and HPLC retention time (Rt).a
0 – 24 h (R t/min) 24 – 48 h (R t/min)
Phase II metabolite urine feces urine feces
glucoside <LOD <LOD <LOD <LOD […]

[1] = urine 0–24 h after IP 1:1 mixture of 10a and 10b, total dose 30 mg/kg, HRMS

Row | phase II metabolite in feces (feces 0–24 h, Table S1) | phase II metabolite in feces (feces 24–48 h, Table S1) | phase II metabolite in urine [1] | phase II metabolite in urine (urine 24–48 h, Table S1) | SMILES
1 | < LOD | < LOD | presence | < LOD | CCc1cc(N)ccc1OC1OC(C(=O)O)C(O)C(O)C1O (centres unmarked) [Compound 14a]
2 | < LOD | < LOD | presence | < LOD | [2H]C([2H])([2H])C([2H])([2H])c1cc(N)ccc1OC1OC(C(=O)O)C(O)C(O)C1O (centres unmarked) [Compound 14b]
